Test results as given in patent US9051342B2 (priority 2004, dated 2015).

Structure (SMILES) | melting point
O=C(O)c1cccc(-n2cc(-c3cccc(F)c3)cn2)c1 [Compound 213, 3-[4-(3-Fluoro-phenyl)-pyrazol-1-yl]-benzoic acid] | 228 to 230 °C
O=C(O)c1ccc(-n2cc(-c3cccc(Oc4ccccc4)c3)cn2)cc1 [Compound 215, 4-[4-(3-Phenoxy-phenyl)-pyrazol-1-yl]-benzoic acid] | 211 to 213 °C
O=C(O)c1cccc(-n2cc(-c3cccc(Oc4ccccc4)c3)cn2)c1 [Compound 216, 3-[4-(3-Phenoxy-phenyl)-pyrazol-1-yl]-benzoic acid] | 164 to 165 °C
COc1ccc(-n2ccc(-c3ccc(C(=O)O)cc3)n2)cc1 [Compound 217, 4-[1-(4-Methoxy-phenyl)-1H-pyrazol-3-yl]-benzoic acid] | 252 to 253 °C
O=C(O)c1ccc(-c2ccn(-c3ccc(OC(F)(F)F)cc3)n2)cc1 [Compound 218, 4-[1-(4-Trifluoromethoxy-phenyl)-1H-pyrazol-3-yl]-benzoic acid] | 214 to 215 °C
COc1ccc(-c2ccn(-c3ccc(C(=O)O)cc3)n2)cc1 [Compound 219, 4-[3-(4-Methoxy-phenyl)-pyrazol-1-yl]-benzoic acid] | 268 to 270 °C
COc1cccc(-c2ccn(-c3cccc(C(=O)O)c3)n2)c1 [Compound 220, 3-[3-(3-Methoxy-phenyl)-pyrazol-1-yl]-benzoic acid] | 179 to 180 °C
COc1cccc(-c2ccn(-c3ccc(C(=O)O)cc3)n2)c1 [Compound 221, 4-[3-(3-Methoxy-phenyl)-pyrazol-1-yl]-benzoic acid] | 200 to 202 °C
O=C(O)c1ccc(-n2ccc(-c3ccccc3)n2)cc1 [Compound 222, 4-(3-Phenyl-pyrazol-1-yl)-benzoic acid] | 244 to 245 °C
O=C(O)c1cccc(-c2cnn(-c3cccc(OC(F)(F)F)c3)c2)c1 [Compound 223, 3-[1-(3-Trifluoromethoxy-phenyl)-1H-pyrazol-4-yl]-benzoic acid] | 143 to 145 °C
CC(C)c1ccc(-n2cc(-c3cccc(C(=O)O)c3)cn2)cc1 [Compound 228, 3-[1-(4-Isopropyl-phenyl)-1H-pyrazol-4-yl]-benzoic acid] | 212 to 215 °C
O=C(O)c1cccc(-c2cnn(-c3ccc(C(F)(F)F)cc3)c2)c1 [Compound 235, 3-[1-(4-Trifluoromethyl-phenyl)-1H-pyrazol-4-yl]-benzoic acid] | 218 to 220 °C
Cc1ccccc1-n1ccc(-c2cccc(C(=O)O)c2)c1 [Compound 240, 3-(1-o-Tolyl-1H-pyrrol-3-yl)-benzoic acid] | 161 to 163 °C
Cc1ccc(-n2ccc(-c3cccc(C(=O)O)c3)c2)cc1F [Compound 241, 3-[1-(3-Fluoro-4-methyl-phenyl)-1H-pyrrol-3-yl]-benzoic acid] | 205 to 208 °C
O=C(O)c1cccc(-c2ccn(-c3cc(F)ccc3F)c2)c1 [Compound 242, 3-[1-(2,5-Difluoro-phenyl)-1H-pyrrol-3-yl]-benzoic acid] | 193 to 194 °C
O=C(O)c1ccc(-c2ccn(-c3cccc(Cl)c3)c2)cc1 [Compound 243, 4-[1-(3-Chloro-phenyl)-1H-pyrrol-3-yl]-benzoic acid] | 199 to 201 °C
Cc1ccc(-n2ccc(-c3ccc(C(=O)O)cc3)c2)cc1F [Compound 244, 4-[1-(3-Fluoro-4-methyl-phenyl)-1H-pyrrol-3-yl]-benzoic acid] | 264 to 268 °C

Structure (SMILES) | melting point
O=C(O)c1ccc(-c2ccn(-c3cc(F)ccc3F)c2)cc1 [Compound 245, 4-[1-(2,5-Difluoro-phenyl)-1H-pyrrol-3-yl]-benzoic acid] | 215 to 218 °C
O=C(O)c1cccc(-c2ccn(-c3cccc(OCc4ccccc4)c3)c2)c1 [Compound 246, 3-[1-(3-Benzyloxy-phenyl)-1H-pyrrol-3-yl]-benzoic acid] | 142 to 144 °C
COc1ccc2c(c1)-c1cn(-c3cccc(C(=O)O)c3)nc1CC2 [Compound 253, 3-(8-Methoxy-4,5-dihydro-benzo[e]indazol-2-yl)-benzoic acid] | 239 to 241 °C
COc1ccc2c(c1)-c1cnn(-c3cccc(C(=O)O)c3)c1CC2 [Compound 254, 3-(8-Methoxy-4,5-dihydro-benzo[e]indazol-3-yl)-benzoic acid] | 269 to 271 °C
CC(=O)c1ccc(-n2ccc(-c3cccc(C(=O)O)c3)n2)cc1 [Compound 255, 3-[1-(4-Acetyl-phenyl)-1H-pyrazol-3-yl]-benzoic acid] | 215 to 216 °C
CC(=O)c1ccc(-n2ccc(-c3ccc(C(=O)O)cc3)n2)cc1 [Compound 256, 4-[1-(4-Acetyl-phenyl)-1H-pyrazol-3-yl]-benzoic acid] | 278 to 279 °C
O=C(O)c1ccc(-c2ccn(-c3ccc4[nH]ccc4c3)n2)cc1 [Compound 257, 4-[1-(1H-Indol-5-yl)-1H-pyrazol-3-yl]-benzoic acid] | 281 to 282 °C
O=C(O)c1cccc(-c2ccn(-c3cccs3)n2)c1 [Compound 258, 3-(1-Thiophen-2-yl-1H-pyrazol-3-yl)-benzoic acid] | 198 to 199 °C
O=C(O)c1ccc(-c2ccn(-c3cccs3)n2)cc1 [Compound 259, 4-(1-Thiophen-2-yl-1H-pyrazol-3-yl)-benzoic acid] | 200 to 202 °C
O=C(O)c1cccc(-c2ccn(-c3cccnc3)n2)c1 [Compound 260, 3-(1-Pyridin-3-yl-1H-pyrazol-3-yl)-benzoic acid] | 235 to 236 °C
O=C(O)c1ccc(-c2ccn(-c3cccnc3)n2)cc1 [Compound 261, 4-(1-Pyridin-3-yl-1H-pyrazol-3-yl)-benzoic acid] | 280 to 282 °C
O=C(O)c1cccc(-n2cnc(-c3ccccc3)c2)c1 [Compound 262, 3-(4-Phenyl-imidazol-1-yl)-benzoic acid] | 277 to 279 °C
O=C(O)c1ccc(-n2cnc(-c3ccccc3)c2)cc1 [Compound 263, 4-(4-Phenyl-imidazol-1-yl)-benzoic acid] | 263 to 265 °C
O=C(O)c1ccc(-n2cc(-c3ccccc3F)nn2)cc1 [Compound 264, 4-[4-(2-Fluoro-phenyl)-[1,2,3]triazol-1-yl]-benzoic acid] | 292 to 294 °C
O=C(O)c1ccc(-n2cc(-c3cccc(F)c3)nn2)cc1 [Compound 265, 4-[4-(3-Fluoro-phenyl)-[1,2,3]triazol-1-yl]-benzoic acid] | 327 to 328 °C
O=C(O)c1ccc(-n2cc(-c3ccc(F)cc3)nn2)cc1 [Compound 266, 4-[4-(4-Fluoro-phenyl)-[1,2,3]triazol-1-yl]-benzoic acid] | 321 to 323 °C

Other lines, results leading:

melting point | Structure (SMILES)
252 to 255 °C | O=C(O)c1ccc(-n2cc(-c3cccc(Cl)c3)cn2)cc1 [Compound 211, 4-[4-(3-Chloro-phenyl)-pyrazol-1-yl]-benzoic acid]
261 to 265 °C | O=C(O)c1ccc(-n2cc(-c3cccc(F)c3)cn2)cc1 [Compound 212, 4-[4-(3-Fluoro-phenyl)-pyrazol-1-yl]-benzoic acid]
220 to 222 °C | O=C(O)c1ccc(-n2cc(-c3cccc(OC(F)F)c3)cn2)cc1 [Compound 214]
230 to 231 °C | O=C(O)c1ccc(-c2cnn(-c3cccc(OC(F)(F)F)c3)c2)cc1 [Compound 224, 4-[1-(3-Trifluoromethoxy-phenyl)-1H-pyrazol-4-yl]-benzoic acid]
201 to 203 °C | O=C(O)c1cccc(-c2cnn(-c3ccc4c(c3)OCCO4)c2)c1 [Compound 225, 3-[1-(2,3-Dihydro-benzo[1,4]dioxin-6-yl)-1H-pyrazol-4-yl]-benzoic acid]
238 to 240 °C | O=C(O)c1ccc(-c2cnn(-c3ccc4c(c3)OCCO4)c2)cc1 [Compound 226, 4-[1-(2,3-Dihydro-benzo[1,4]dioxin-6-yl)-1H-pyrazol-4-yl]-benzoic acid]
266 to 268 °C | O=C(O)c1ccc(-c2cnn(-c3ccc4c(c3)OCO4)c2)cc1 [Compound 227, 4-(1-Benzo[1,3]dioxol-5-yl-1H-pyrazol-4-yl)-benzoic acid]
215 to 218 °C | CC(C)c1ccc(-n2cc(-c3ccc(C(=O)O)cc3)cn2)cc1 [Compound 229, 4-[1-(4-Isopropyl-phenyl)-1H-pyrazol-4-yl]-benzoic acid]
209 to 211 °C | Cc1ccc(-n2cc(-c3cccc(C(=O)O)c3)cn2)cc1Cl [Compound 230, 3-[1-(3-Chloro-4-methyl-phenyl)-1H-pyrazol-4-yl]-benzoic acid]
285 to 288 °C | Cc1ccc(-n2cc(-c3ccc(C(=O)O)cc3)cn2)cc1Cl [Compound 231, 4-[1-(3-Chloro-4-methyl-phenyl)-1H-pyrazol-4-yl]-benzoic acid]
135 to 138 °C | O=C(O)c1cccc(-c2cnn(-c3ccc(Cl)c(Cl)c3)c2)c1 [Compound 232, 3-[1-(3,4-Dichloro-phenyl)-1H-pyrazol-4-yl]-benzoic acid]
286 to 289 °C | O=C(O)c1ccc(-c2cnn(-c3ccc(Cl)c(Cl)c3)c2)cc1 [Compound 233, 4-[1-(3,4-Dichloro-phenyl)-1H-pyrazol-4-yl]-benzoic acid]
259 to 261 °C | O=C(O)c1ccc(-c2cnn(-c3ccc(Cl)cc3)c2)cc1 [Compound 234, 4-[1-(4-Chloro-phenyl)-1H-pyrazol-4-yl]-benzoic acid]
271 to 273 °C | O=C(O)c1ccc(-c2cnn(-c3ccc(C(F)(F)F)cc3)c2)cc1 [Compound 236, 4-[1-(4-Trifluoromethyl-phenyl)-1H-pyrazol-4-yl]-benzoic acid]
254 to 256 °C | Cc1ccc(-n2cc(-c3ccc(C(=O)O)cc3)cn2)cc1C [Compound 238, 4-[1-(3,4-Dimethyl-phenyl)-1H-pyrazol-4-yl]-benzoic acid]
221 to 223 °C | O=C(O)c1cccc(-c2cnn(-c3ccc4c(c3)OCO4)c2)c1 [Compound 239, 3-(1-Benzo[1,3]dioxol-5-yl-1H-pyrazol-4-yl)-benzoic acid]
177 to 180 °C | O=C(O)c1cccc(-c2ccn(-c3ccc4c(c3)OCO4)c2)c1 [Compound 247, 3-(1-Benzo[1,3]dioxol-5-yl-1H-pyrrol-3-yl)-benzoic acid]
